This is an account of results in ChEMBL document CHEMBL2203033, “Design and synthesis of novel DFG-out RAF/vascular endothelial growth factor receptor 2 (VEGFR2) inhibitors: 3. Evaluation of 5-amino-linked thiazolo[5,4-d]pyrimidine and thiazolo[5,4-b]pyridine derivatives” (Bioorg Med Chem, 2012).

Broadly, the IC50 is the midpoint of a concentration-inhibition curve. The term Cmax denotes the maximum level reached in the sampled fluid or tissue. As usually defined, the bioavailability is the share of a dose that reaches the circulation, judged against a reference dose that is usually intravenous. Lower therefore signals poor availability. For orientation: AUC(0-t) means the area under the concentration-time curve up to a stated or last time point. A higher AUC(0-t) goes with more exposure. In general, MRT refers to a mean duration of stay, worked out from the concentration-time curve. In general, clearance refers to the volume of plasma or blood freed of the substance per unit of time. A low value points to inefficient removal.

Active and inactive are the calls of the source. No cut-off for these calls is given here.

Series [1] concerns the target T1, Serine/threonine-protein kinase B-raf (Homo sapiens, UniProt P15056, V600E). Kind of series: Inhibition of BRAF V600E mutant in human HT-29 cells assessed as reduction of […] phosphorylation. The series is classed as cell-based.
For series [2], the target named is Vascular endothelial growth factor receptor 2 (Homo sapiens, UniProt P35968). Kind of series: Inhibition of VEGFR2.
Chain of Vascular endothelial growth factor receptor 2 (P35968 whole entry): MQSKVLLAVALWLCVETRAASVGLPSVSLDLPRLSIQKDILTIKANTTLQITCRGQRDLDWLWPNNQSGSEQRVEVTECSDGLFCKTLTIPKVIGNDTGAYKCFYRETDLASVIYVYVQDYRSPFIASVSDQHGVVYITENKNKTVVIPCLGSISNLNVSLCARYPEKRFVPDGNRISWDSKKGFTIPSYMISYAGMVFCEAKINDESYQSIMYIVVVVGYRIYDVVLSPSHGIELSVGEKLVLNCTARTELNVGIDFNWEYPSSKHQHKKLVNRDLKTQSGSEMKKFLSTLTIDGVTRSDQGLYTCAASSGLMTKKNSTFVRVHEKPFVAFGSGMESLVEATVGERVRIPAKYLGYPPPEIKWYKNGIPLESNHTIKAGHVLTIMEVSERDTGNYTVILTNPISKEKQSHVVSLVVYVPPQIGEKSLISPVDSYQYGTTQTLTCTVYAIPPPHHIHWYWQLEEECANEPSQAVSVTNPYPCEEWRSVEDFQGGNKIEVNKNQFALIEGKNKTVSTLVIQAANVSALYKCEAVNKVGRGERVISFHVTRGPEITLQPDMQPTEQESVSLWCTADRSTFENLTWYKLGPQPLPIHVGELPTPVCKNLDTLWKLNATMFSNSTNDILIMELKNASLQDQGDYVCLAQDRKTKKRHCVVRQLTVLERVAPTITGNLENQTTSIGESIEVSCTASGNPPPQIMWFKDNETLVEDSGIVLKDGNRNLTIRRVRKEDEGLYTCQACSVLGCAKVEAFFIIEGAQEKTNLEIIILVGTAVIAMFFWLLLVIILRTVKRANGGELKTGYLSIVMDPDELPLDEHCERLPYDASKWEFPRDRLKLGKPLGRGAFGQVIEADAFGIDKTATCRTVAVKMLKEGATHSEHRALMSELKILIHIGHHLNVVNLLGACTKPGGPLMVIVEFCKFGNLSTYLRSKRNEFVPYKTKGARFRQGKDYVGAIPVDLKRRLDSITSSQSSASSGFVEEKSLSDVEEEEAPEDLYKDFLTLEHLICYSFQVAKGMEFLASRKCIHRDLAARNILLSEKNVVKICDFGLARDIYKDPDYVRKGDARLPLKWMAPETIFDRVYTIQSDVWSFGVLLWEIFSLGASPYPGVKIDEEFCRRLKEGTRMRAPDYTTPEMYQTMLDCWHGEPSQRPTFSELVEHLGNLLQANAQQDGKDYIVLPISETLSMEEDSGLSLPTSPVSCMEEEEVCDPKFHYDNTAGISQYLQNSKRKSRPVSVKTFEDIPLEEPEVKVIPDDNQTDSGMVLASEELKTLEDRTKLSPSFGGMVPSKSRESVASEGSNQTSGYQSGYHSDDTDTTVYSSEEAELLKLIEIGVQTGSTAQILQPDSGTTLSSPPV
The target of series [3] is T1, Serine/threonine-protein kinase B-raf. Put plainly: Inhibition of recombinant BRAF V600E mutant using […] and [gamma-32P]ATP as substrate after 30 mins by scintillation counting.
Series [4] is described as follows: Thermodynamic solubility of the compound in Japanese pharmacopoeia 2nd fluid at pH 6.8 presence of 20 mmol/L of bile acid. The class given is physicochemical. Particulars: read-out: Therm_solubility.
Series [5] can be described thus: Intrinsic clearance in human liver microsomes at 1 umol/L after 20 mins in presence of NADPH. The class given is ADME, Microsome. To be noted: read-out: CLH.
Series [6] deals with Rattus norvegicus. Put plainly: Toxicity in human HT-29 cells xenografted nude rat at 25 mg/kg, po qd for 2 weeks. Particulars: in vivo, 336 h. Also noted: dose 25 mg/kg, route oral. The class given is organism-based.
Series [7] concerns HT-29. Kind of series: Antitumor activity against human HT-29 cells xenografted in nude rat assessed as tumor regression at 25 mg/kg, po qd for 2 weeks. The class given is functional. On the technique in general: In xenograft studies the graft and the host belong to different species.
A short description of series [8]: Cmax in rat at 25 mg/kg, po. Set-up: dose 25 mg/kg, route oral. The series is classed as ADME, organism-based. Particulars: in vivo.
Series [9] is described as follows: Oral bioavailability in rat at 25 mg/kg. The class given is ADME, organism-based. To be noted: in vivo.
Series [10] in a line: AUC (0 to 24 hrs) in rat at 25 mg/kg, po. To be noted: plasma. Also noted: time < 24 hr, dose 25 mg/kg, route oral. The series is classed as ADME, organism-based.
The nature of series [11]: Mean residence time in rat at 25 mg/kg, po. The series is classed as ADME, organism-based. Set-up: dose 25 mg/kg, route oral. To be noted: in vivo.
The nature of series [12]: Mean residence time in rat at 1 mg/kg, iv. The class given is ADME, organism-based. Set-up: dose 1 mg/kg, route intravenous. Particulars: in vivo.
Series [13] in a line: AUC (0 to 24 hrs) in rat at 1 mg/kg, iv. The series is classed as ADME, organism-based. Also noted: time < 24 hr, dose 1 mg/kg, route intravenous. To be noted: plasma.
Series [14] is described as follows: Total clearance in rat at 1 mg/kg, iv. The class given is ADME, organism-based. Also noted: dose 1 mg/kg, route intravenous. To be noted: in vivo.
A short description of series [15]: Volume of distribution at steady state in rat at 1 mg/kg, iv. The series is classed as ADME, organism-based. Also noted: dose 1 mg/kg, route intravenous. Particulars: in vivo, read-out: Vdss.
The subject of series [16] is Rattus norvegicus. Put plainly: Inhibition of BRAF in human HT-29 cells xenografted nude rat tumor assessed as reduction of ERK phosphorylation at 25 mg/kg, po. Set-up: dose 25 mg/kg. The series is classed as functional, organism-based.
Series [17] is described as follows: Intrinsic clearance in mouse liver microsomes at 1 umol/L after 20 mins in presence of NADPH. The class given is ADME, Microsome. Particulars: read-out: CLH. A general note: Liver microsomes are a subcellular fraction often used to study metabolism.
The target of series [18] is Mitogen-activated protein kinase kinase kinase 1 (Homo sapiens, UniProt Q13233). Put plainly: Inhibition of MEKK1.
Chain of Mitogen-activated protein kinase kinase kinase 1 (Q13233 whole entry): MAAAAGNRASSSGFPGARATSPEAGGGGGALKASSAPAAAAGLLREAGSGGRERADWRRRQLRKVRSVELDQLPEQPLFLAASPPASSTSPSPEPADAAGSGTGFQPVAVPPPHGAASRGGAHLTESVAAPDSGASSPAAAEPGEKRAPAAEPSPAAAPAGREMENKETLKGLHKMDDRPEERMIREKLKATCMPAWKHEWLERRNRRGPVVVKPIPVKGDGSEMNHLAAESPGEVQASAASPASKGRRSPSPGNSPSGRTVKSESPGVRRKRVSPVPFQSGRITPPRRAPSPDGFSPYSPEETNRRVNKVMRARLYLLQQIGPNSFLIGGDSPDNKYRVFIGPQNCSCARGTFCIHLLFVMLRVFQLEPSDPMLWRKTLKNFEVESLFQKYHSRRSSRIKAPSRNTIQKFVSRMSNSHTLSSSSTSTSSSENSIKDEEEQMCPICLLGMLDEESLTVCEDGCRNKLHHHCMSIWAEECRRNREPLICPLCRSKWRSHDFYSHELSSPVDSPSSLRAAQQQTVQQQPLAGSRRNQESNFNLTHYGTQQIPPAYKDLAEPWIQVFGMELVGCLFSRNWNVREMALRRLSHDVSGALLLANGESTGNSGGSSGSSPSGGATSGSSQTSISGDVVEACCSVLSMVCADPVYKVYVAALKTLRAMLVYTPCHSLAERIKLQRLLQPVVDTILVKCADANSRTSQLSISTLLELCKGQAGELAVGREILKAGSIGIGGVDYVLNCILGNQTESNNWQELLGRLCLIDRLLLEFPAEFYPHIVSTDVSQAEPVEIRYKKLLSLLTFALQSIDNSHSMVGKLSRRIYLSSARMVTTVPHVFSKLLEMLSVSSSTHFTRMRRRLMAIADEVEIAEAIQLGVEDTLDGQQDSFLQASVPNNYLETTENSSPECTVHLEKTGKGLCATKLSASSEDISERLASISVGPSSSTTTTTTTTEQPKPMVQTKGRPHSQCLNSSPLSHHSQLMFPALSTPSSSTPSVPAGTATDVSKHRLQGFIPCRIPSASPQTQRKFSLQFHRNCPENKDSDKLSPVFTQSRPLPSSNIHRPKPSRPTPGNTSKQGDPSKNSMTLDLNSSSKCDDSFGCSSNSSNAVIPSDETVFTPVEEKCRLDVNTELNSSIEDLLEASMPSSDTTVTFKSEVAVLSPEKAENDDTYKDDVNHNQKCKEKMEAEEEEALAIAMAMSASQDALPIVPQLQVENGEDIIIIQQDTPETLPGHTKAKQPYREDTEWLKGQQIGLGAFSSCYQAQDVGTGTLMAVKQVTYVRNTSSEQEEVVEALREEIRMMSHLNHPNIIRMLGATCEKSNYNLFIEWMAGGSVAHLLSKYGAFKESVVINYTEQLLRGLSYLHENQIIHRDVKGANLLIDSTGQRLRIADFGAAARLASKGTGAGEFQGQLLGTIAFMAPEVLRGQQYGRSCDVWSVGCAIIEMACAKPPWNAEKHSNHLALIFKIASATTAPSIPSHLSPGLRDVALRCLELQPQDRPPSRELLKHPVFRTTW
The target of series [19] is Glycogen synthase kinase-3 beta (Homo sapiens, UniProt P49841). Kind of series: Inhibition of GSK3beta.
The target of series [20] is Mitogen-activated protein kinase 8 (Homo sapiens, UniProt P45983). Kind of series: Inhibition of JNK1.
Series [21] deals with Aurora kinase B (Homo sapiens, UniProt Q96GD4). Kind of series: Inhibition of aurora B.
For series [22], the target named is Cyclin-dependent kinase 2 (Homo sapiens, UniProt P24941). Kind of series: Inhibition of CDK2.
The target in series [23] is Cyclin-dependent kinase 1 (Homo sapiens, UniProt P06493). Put plainly: Inhibition of CDK1.
Chain of Cyclin-dependent kinase 1 (P06493 whole entry): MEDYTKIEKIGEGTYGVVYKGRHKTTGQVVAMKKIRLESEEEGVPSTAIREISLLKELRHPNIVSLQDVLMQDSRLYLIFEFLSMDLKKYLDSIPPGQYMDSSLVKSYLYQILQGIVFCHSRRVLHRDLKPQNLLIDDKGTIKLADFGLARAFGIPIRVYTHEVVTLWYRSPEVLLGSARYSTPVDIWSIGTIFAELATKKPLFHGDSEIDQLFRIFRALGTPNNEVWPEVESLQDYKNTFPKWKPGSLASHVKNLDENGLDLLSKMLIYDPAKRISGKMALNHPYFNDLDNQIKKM
Series [24] concerns the target Mitogen-activated protein kinase 3 (Homo sapiens, UniProt P27361). Put plainly: Inhibition of ERK1.
Series [25] has as its target Serine/threonine-protein kinase Chk1 (Homo sapiens, UniProt O14757). Kind of series: Inhibition of CHK1.
The target in series [26] is Protein kinase C theta type (Homo sapiens, UniProt Q04759). Put plainly: Inhibition of PKCtheta.
Series [27] deals with Inhibitor of nuclear factor kappa-B kinase subunit beta (Homo sapiens, UniProt O14920). Put plainly: Inhibition of IKKbeta.
In series [28] the target is Insulin receptor (Homo sapiens, UniProt P06213). Put plainly: Inhibition of IR.
In series [29] the target is Mast/stem cell growth factor receptor Kit (Homo sapiens, UniProt P10721). Put plainly: Inhibition of c-Kit.
Series [30] concerns the target Angiopoietin-1 receptor (Homo sapiens, UniProt Q02763). Put plainly: Inhibition of TIE2.
Series [31] addresses Receptor tyrosine-protein kinase erbB-2 (Homo sapiens, UniProt P04626). Put plainly: Inhibition of HER2.
Series [32] concerns the target Platelet-derived growth factor receptor alpha (Homo sapiens, UniProt P16234). Put plainly: Inhibition of PDGFRalpha.
For series [33], the target named is Platelet-derived growth factor receptor beta (Homo sapiens, UniProt P09619). Kind of series: Inhibition of PDGFRbeta.
For series [34], the target named is Fibroblast growth factor receptor 3 (Homo sapiens, UniProt P22607). Kind of series: Inhibition of FGFR3.
The target of series [35] is RAF proto-oncogene serine/threonine-protein kinase (Homo sapiens, UniProt P04049). Put plainly: Inhibition of c-RAF.
Series [36] has as its target Dual specificity mitogen-activated protein kinase kinase 1 (Homo sapiens, UniProt Q02750).
In series [37] the target is Proto-oncogene tyrosine-protein kinase Src (Homo sapiens, UniProt P12931).
Series [38] deals with Hepatocyte growth factor receptor (Homo sapiens, UniProt P08581).

T1 sequence (P15056 2-766 V600E limits assumed): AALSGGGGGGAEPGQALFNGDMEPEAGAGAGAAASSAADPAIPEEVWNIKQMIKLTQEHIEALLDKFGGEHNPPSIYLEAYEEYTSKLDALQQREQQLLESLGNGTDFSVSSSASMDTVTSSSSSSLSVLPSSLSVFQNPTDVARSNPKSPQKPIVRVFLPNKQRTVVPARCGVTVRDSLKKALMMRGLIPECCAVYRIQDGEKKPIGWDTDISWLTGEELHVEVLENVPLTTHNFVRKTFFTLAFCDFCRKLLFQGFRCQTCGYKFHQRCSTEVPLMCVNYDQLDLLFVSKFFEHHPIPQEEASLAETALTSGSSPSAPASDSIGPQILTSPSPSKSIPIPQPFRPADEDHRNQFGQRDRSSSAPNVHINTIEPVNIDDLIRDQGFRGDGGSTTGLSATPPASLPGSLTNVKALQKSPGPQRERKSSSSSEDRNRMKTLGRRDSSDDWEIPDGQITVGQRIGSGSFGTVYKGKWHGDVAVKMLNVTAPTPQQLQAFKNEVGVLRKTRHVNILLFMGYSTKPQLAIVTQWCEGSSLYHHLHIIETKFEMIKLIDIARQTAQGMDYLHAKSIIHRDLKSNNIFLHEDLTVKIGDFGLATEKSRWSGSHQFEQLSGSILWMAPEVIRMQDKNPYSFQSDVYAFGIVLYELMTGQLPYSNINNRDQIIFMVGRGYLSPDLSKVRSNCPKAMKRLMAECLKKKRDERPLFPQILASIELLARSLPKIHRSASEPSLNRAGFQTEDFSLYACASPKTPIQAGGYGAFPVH
Chain of Angiopoietin-1 receptor (Q02763 whole entry): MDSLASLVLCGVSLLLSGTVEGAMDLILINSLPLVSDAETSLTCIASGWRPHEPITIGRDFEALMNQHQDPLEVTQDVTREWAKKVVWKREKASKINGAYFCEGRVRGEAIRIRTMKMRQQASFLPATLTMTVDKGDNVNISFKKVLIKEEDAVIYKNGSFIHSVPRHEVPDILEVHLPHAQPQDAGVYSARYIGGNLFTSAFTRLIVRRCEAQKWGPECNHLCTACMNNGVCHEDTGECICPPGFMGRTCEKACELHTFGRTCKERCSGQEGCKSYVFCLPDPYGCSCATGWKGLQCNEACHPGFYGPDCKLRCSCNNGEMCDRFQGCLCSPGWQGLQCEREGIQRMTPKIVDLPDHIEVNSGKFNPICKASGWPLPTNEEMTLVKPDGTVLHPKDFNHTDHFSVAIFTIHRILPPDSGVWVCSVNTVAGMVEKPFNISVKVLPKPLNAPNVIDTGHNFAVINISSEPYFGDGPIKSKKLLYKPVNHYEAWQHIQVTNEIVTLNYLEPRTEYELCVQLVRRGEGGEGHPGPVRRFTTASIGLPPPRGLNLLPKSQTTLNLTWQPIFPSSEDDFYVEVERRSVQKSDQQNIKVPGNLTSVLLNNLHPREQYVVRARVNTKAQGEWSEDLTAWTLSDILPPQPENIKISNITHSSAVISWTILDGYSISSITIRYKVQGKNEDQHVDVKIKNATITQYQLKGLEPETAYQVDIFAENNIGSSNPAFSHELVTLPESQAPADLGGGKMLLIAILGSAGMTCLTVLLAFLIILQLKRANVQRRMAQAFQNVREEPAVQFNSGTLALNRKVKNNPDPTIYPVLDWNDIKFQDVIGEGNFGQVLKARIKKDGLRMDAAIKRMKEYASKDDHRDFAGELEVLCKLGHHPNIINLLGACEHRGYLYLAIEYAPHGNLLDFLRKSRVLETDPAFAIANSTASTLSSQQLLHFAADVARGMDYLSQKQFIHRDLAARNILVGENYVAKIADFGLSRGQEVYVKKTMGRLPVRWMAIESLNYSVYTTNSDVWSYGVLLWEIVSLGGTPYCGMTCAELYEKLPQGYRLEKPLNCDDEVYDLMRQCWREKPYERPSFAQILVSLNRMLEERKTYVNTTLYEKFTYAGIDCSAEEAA

As for `CC(=O)Nc1nc2cnc(Nc3cc(NC(=O)c4cccc(OC(C)(C)C#N)c4)ccc3C)nc2s1`, the IC50 is 0.088 µM in series [1], 0.51 µM in series [2] and 0.073 µM in [3].

As to `CN(c1ccc(F)c(NC(=O)c2cccc(OC(C)(C)C#N)c2Cl)c1)c1ccc2nc(NC(=O)C3CC3)sc2n1.O=S(=O)(O)O`, the solubility thermodynamic in [4] turned out to be 35 µg/mL.

As to `CC(=O)Nc1nc2cnc(Nc3cc(NC(=O)c4cccc(CCC#N)c4)ccc3C)nc2s1`, the microsomal CLint at 1 µM in series [5] was 35 µL/min/mg. Also, the IC50 was more than 0.5 µM in [1], 0.41 µM in [2] and 0.051 µM in series [3].

On to `CC(=O)Nc1nc2cnc(Nc3cc(NC(=O)c4cccc(CC(C)(C)C#N)c4)ccc3C)nc2s1`, for which the microsomal CLint at 1 µM in [5] was determined as 56 µL/min/mg. The values for the IC50 in series [1], in series [2] and in series [3] were 0.15 µM, 0.3 µM and 0.1 µM, respectively.

As for `CN(c1ccc(F)c(NC(=O)c2cccc(OC(C)(C)C#N)c2Cl)c1)c1ccc2nc(NC(=O)C3CC3)sc2n1.O.O=S(=O)(O)c1ccccc1`, in series [6], the Activity entry is listed as “Non-toxic”. Further, the T/C in series [7] is given as -70%. In series [8], this molecule returned a maximum concentration (Cmax) of 660 ng/mL. Further, the bioavailability in series [9] worked out at 38.4%. Besides, the AUC(0-t) at 24 h turned out to be 5770 ng·h/mL in [10] and 600 ng·h/mL in series [13]. In addition, the MRT in series [11] is 5.26 h; in [12], 3.13 h. In series [14], the clearance was 29.2 mL/min/kg. The Vd in [15] came to 5.52 L/kg. The solubility thermodynamic in series [4] was 37 µg/mL.

Take `CC(C)(C#N)Oc1cccc(C(=O)Nc2cc(Nc3ccc4nc(NC(=O)C5CC5)sc4n3)ccc2F)c1Cl`: the solubility thermodynamic in series [4] stood at 0.91 µg/mL. Moreover, the IC50 in series [1] was determined as 0.087 µM; in series [2], 0.064 µM; in series [3], 0.015 µM.

With `CN(c1ccc(F)c(NC(=O)c2cccc(OC(C)(C)C#N)c2Cl)c1)c1ccc2nc(NC(=O)C3CC3)sc2n1` [listing 1 of 2 here], the inhibition entry in series [16] was “Active”.

For `CC(=O)Nc1nc2ccc(N(C)c3ccc(F)c(NC(=O)c4cccc(OC(C)(C)C#N)c4)c3)nc2s1`, the microsomal CLint at 1 µM in [17] came out at 25 µL/min/mg; in series [5] it was 22 µL/min/mg. The IC50 in series [1] is 0.03 µM.

As for `CC(=O)Nc1nc2cnc(Nc3cc(NC(=O)c4cccc(C5(C#N)CC5)c4Cl)ccc3C)nc2s1`, the microsomal CLint at 1 µM in series [5] was 73 µL/min/mg. The IC50 in [1] came to 0.12 µM; in series [2], 0.34 µM; in series [3] it was 0.091 µM.

On to `CN(c1ccc(F)c(NC(=O)c2cccc(OC(C)(C)C#N)c2Cl)c1)c1ccc2nc(NC(=O)C3CC3)sc2n1.Cl`, for which the solubility thermodynamic in [4] stood at 31 µg/mL.

`CN(c1ccc(F)c(NC(=O)c2cccc(OC(C)(C)C#N)c2Cl)c1)c1ccc2nc(NC(=O)C3CC3)sc2n1` [listing 2 of 2 here]: the IC50 in series [18] is more than 10 µM; in [19], more than 10 µM; in series [20], more than 10 µM; in series [21], 4 µM; in [22] it was more than 10 µM; in series [23], 3.7 µM. Also, the IC50 in series [24] was more than 10 µM; in series [25], more than 10 µM; in [26], more than 10 µM; in [27], 8.1 µM; in [28], more than 10 µM; in [29], 0.43 µM. Besides, the concentration for half-maximal inhibition (IC50) came to 0.84 µM in series [30]; 1.2 µM in series [31]; 0.043 µM in series [32]; 0.091 µM in [33]; 0.086 µM in series [34]; 0.023 µM in [35]. The figures for the IC50 in series [36], in series [37] and in series [38] were 1 µM, 0.13 µM and more than 10 µM, respectively. Moreover, in series [4], the solubility thermodynamic came out at 18 µg/mL. For the same molecule, the values for the microsomal CLint at 1 µM in [17] and in series [5] were 32 µL/min/mg and 25 µL/min/mg, respectively.

Consider `CC(=O)Nc1nc2ccc(N(C)c3ccc(F)c(NC(=O)c4cccc(OC(C)(C)C#N)c4Cl)c3)nc2s1`, for which the results for the microsomal CLint at 1 µM in [17] and in series [5] were 55 µL/min/mg and 45 µL/min/mg, respectively. In series [1], the IC50 amounted to 0.022 µM.
